Measured values published in publication PMC8988006, “Structural and biochemical characterization of the prenylated flavin mononucleotide-dependent indole-3-carboxylic acid decarboxylase” (The Journal of Biological Chemistry, 2022).
Positions count from the first letter of the chain named. Each block holds one compound with its values, some of them ahead of it.

Key:
[1] = target: T1, SrCAR (Seginiliparous rugosus carboxylic acid reductase) (Segniliparus rugosus, UniProt E5XP76); assay: one-pot cascade with AnInD, HPLC; format: biochemical; settings: I3C formed in situ from indole + NaHCO3 by AnInD; ATP, NADPH, Mn2+, Mg2+; potassium phosphate, 30 °C
T1 construct: gene car
T1 sequence (E5XP76 1-1188): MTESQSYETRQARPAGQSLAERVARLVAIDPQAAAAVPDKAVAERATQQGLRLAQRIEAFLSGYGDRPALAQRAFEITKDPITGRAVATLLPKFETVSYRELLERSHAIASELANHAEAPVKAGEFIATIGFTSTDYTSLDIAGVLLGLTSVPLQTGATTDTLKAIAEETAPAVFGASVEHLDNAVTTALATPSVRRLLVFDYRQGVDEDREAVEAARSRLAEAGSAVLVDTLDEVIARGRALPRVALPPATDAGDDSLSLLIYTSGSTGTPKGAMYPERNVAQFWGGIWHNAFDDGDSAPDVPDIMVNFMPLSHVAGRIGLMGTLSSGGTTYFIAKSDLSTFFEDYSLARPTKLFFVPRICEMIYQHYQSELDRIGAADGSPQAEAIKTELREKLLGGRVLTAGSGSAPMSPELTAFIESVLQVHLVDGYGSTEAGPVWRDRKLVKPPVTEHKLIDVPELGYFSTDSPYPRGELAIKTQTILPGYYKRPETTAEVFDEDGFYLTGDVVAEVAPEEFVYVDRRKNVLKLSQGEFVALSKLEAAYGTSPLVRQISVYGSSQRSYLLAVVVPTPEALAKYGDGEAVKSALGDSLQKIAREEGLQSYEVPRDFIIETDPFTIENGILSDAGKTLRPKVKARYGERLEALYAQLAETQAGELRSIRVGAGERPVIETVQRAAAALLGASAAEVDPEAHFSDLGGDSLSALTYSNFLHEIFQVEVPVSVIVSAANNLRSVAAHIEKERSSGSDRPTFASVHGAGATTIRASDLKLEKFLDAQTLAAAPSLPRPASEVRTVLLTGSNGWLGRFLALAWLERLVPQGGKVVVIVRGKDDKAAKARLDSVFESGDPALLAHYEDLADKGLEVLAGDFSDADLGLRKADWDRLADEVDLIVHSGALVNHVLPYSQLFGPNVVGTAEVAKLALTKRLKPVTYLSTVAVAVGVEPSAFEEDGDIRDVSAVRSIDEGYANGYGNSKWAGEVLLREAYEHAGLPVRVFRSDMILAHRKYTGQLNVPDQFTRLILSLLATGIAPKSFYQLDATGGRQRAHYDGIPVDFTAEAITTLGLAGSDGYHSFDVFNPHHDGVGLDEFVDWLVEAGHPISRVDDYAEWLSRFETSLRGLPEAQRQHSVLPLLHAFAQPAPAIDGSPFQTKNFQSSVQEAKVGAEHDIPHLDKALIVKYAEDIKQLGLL

[2] = target: T2, AnInD (indole-3-carboxylic acid decarboxylase) (Glutamicibacter nicotianae, UniProt Z9P359VB74, D169L); assay: end point HPLC decarboxylation assay; format: biochemical; settings: prFMN-reconstituted; 50 mM potassium phosphate pH 6.5, 10 mM I3C, 2 μM enzyme
T2 construct: His6-tagged (C-terminal in pET30a or N-terminal in pET28a), E. coli BL21(DE3), Ni-NTA, ~50 kDa by SDS-PAGE, hexamer, reconstituted with prFMN and Mn2+
T2 sequence (Z9P359VB74 2-461 D169L): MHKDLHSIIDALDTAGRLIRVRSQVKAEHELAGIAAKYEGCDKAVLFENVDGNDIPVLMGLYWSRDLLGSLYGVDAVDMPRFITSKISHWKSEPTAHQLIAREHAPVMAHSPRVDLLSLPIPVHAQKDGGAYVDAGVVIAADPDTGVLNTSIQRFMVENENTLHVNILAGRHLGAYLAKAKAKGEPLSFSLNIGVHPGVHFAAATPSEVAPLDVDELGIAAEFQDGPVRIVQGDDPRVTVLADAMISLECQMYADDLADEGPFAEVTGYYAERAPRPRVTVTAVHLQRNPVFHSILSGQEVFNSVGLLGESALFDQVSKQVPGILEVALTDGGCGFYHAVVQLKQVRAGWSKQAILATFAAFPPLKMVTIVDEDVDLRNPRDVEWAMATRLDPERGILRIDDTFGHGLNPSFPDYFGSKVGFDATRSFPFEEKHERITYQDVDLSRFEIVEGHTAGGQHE

[3] = target: T3, AnInD (indole-3-carboxylic acid decarboxylase) (Glutamicibacter nicotianae, UniProt Z9P359VB74, D169A); assay: end point HPLC decarboxylation assay; format: biochemical; settings: prFMN-reconstituted; 50 mM potassium phosphate pH 6.5, 10 mM I3C, 2 μM enzyme
T3 construct: His6-tagged (C-terminal in pET30a or N-terminal in pET28a), E. coli BL21(DE3), Ni-NTA, ~50 kDa by SDS-PAGE, hexamer, reconstituted with prFMN and Mn2+
T3 sequence (Z9P359VB74 2-461 D169A): T2 sequence (Z9P359VB74 2-461 D169L) with L168A

[4] = target: T4, AnInD (indole-3-carboxylic acid decarboxylase) (Glutamicibacter nicotianae, UniProt Z9P359VB74, D169V); assay: end point HPLC decarboxylation assay; format: biochemical; settings: prFMN-reconstituted; 50 mM potassium phosphate pH 6.5, 10 mM I3C, 2 μM enzyme
T4 construct: His6-tagged (C-terminal in pET30a or N-terminal in pET28a), E. coli BL21(DE3), Ni-NTA, ~50 kDa by SDS-PAGE, hexamer, reconstituted with prFMN and Mn2+
T4 sequence (Z9P359VB74 2-461 D169V): T2 sequence (Z9P359VB74 2-461 D169L) with L168V

[5] = test system: T5, O=C(O)c1c[nH]c2ccccc12; assay: purified protein; format: biochemical, Glutamicibacter nicotianae; settings: prFMN-reconstituted enzyme, Mn2+, 50 mM potassium phosphate pH 6.5, 50 mM KCl, room temperature, apparent because active enzyme (prFMN) content is unknown
T5 construct: His6-tagged (C-terminal in pET30a or N-terminal in pET28a), E. coli BL21(DE3), Ni-NTA, ~50 kDa by SDS-PAGE, hexamer, reconstituted with prFMN and Mn2+

[6] = target: indole-3-carboxylate decarboxylase from Arthrobacter nicotianae (Arthrobacter nicotianae); assay: crystal structure; AnInD at ca 15 mg/ml, sitting drop vapor diffusion, PACT screen condition G5, 20 °C; crystals soaked with prFMN; space group P2_(1); whole hexamer in the asymmetric unit
[7] = target: indole-3-carboxylate decarboxylase from Arthrobacter nicotianae (Arthrobacter nicotianae); assay: SAXS; HPLC SAXS (Shodex KW-403 column, 0.15 ml/min) on beamline B21, Diamond Light Source; ab initio envelope (DAMMIN/DAMAVER) with the hexamer crystal structure superimposed

Compound: O=C(O)c1c[nH]c2ccccc12 [I3C, indole-3-carboxylic acid]
one-pot cascade with AnInD, HPLC [1]: These assays revealed the formation/production of indole-3-carboxyaldehyde
activity [2]: All AnInD D169X variants were found to be severely affected in activity
activity [3]: All AnInD D169X variants were found to be severely affected in activity
activity [4]: All AnInD D169X variants were found to be severely affected in activity

Compound: AnInD (indole-3-carboxylic acid decarboxylase) (Glutamicibacter nicotianae)
Km [5]: 790 µM
kcat [5]: 4.4 (±0.3) s^−1

stoichiometry N [6]: 6
stoichiometry N [7]: 6
Compound: indole-3-carboxylate decarboxylase from Arthrobacter nicotianae (enzyme)
